Test results taken from patent US20140154263A1, “Use of TAK1 Inhibitor to Achieve Glycemic Control in Mammals” (Connexios Life Sciences Pvt. Ltd., priority 2012, published 2014).

What was measured:
[1] = system: JNK; test: JNK phosphorylation under inflammatory conditions in adipocytes; assay type: cell-based; details: in response to inflammatory cytokine, FIG. 1
[2] = system: 3T3 L1 cells; test: Insulin sensitivity in adipocytes (Western blot p-Akt Thr-308 / total Akt); assay type: cell-based; details: glucose and palmitate 48 hours, then 10 and 100 nM insulin 15 min, FIG. 2
Method: This was ascertained by treating 3T3 L1 cells with glucose and palmitate (GP) for 48 hours in the presence and absence of TAK-1 inhibitor. Cells were then stimulated with 10 and 100 nM insulin (I) for 15 min, following which they were taken up for Western blot analysis for p-Akt ([…]) and total Akt.

[3] = system: 3T3F442A pre adipocytes; test: Adipogenesis (TG levels) under inflammatory cytokines; assay type: cell-based; details: differentiation with inflammatory cytokines, FIG. 3
Method: Experiments were performed in which inflammatory cytokines were added to 3T3F442A pre adipocytes (UD) and TG levels were estimated as a measure of adipogenesis. Differentiation was carried out in the presence and absence of TAK-1 inhibitor.

[4] = system: 3T3F442A cells; test: Secreted adiponectin in adipocytes; assay type: cell-based; details: inflammation (inf) plus metabolic overload (pal), FIG. 4
Text: Adiponectin is secreted by insulin sensitive mature adipocytes and positively modulates glucose and lipid metabolism in non adipose tissues such as liver, muscle etc. Increased adiponectin secretion is desirable and is correlated with whole body insulin sensitivity. Inflammation (inf) in the presence of metabolic overload (pal) caused a decrease in adiponectin secretion in 3T3F442A cells.

[5] = system: rat primary hepatocytes; test: Reactive oxygen species in rat primary hepatocytes; assay type: cell-based; details: glucose, palmitate and inflammatory cytokines, FIG. 8
Text: Reactive oxygen species (ROS) are generated as metabolic byproducts, particularly as a byproduct of oxidative phosphorylation. Under normal conditions, the levels of ROS generated are low and tightly controlled, and can function as signaling intermediates.

[6] = system: JNK; test: JNK activation in skeletal muscle cells; assay type: cell-based
Text: (§1) Taken together, TAK-1 inhibition could lead to decreased JNK and NFkB signaling under metabolic overload and inflammation.

[7] = system: IkB; test: IkB level in skeletal muscle cells; assay type: cell-based; details: skeletal muscle cells under inflammatory conditions (Infl), FIG. 14
Text: as §1

[8] = system: C2C12 myotubes; test: NO release from muscle cells; assay type: cell-based
Text: (§2) Oxidative stress mediated by both ROS and RNS (NO) is known to impair mitochondrial function and induced insulin resistance in skeletal muscle (FIG. 17). Furthermore, it is also known that metabolic overload and inflammatory signal drives oxidative stress in skeletal muscles.

[9] = system: skeletal muscles; test: ROS levels in skeletal muscle cells; assay type: cell-based; details: different disease conditions, FIG. 17 C
Text: as §2

[10] = system: muscle cells; test: Mitochondrial activity of muscle cells (reduction of MTT); assay type: cell-based; details: inflammation and oxidative stress conditions, FIG. 18
[11] = system: skeletal muscle cells; test: Mitochondrial biogenesis in skeletal muscle cells (mtND1, mitochondrial DNA copy number, MEF2C); assay type: cell-based; details: FIG. 18
[12] = system: rat islets; test: Glucose stimulated insulin secretion (GSIS) under inflammatory conditions; assay type: cell-based; details: inflammatory condition (Infl), FIG. 25
[13] = system: insulin gene, PDX1, IL1b, glucokinase (GCK) and Glut2 (slc2a2); test: Gene expression in islet beta cells under inflammatory conditions; assay type: cell-based, rat
[14] = metabolic overload or inflammation

COc1cc(O)c2c(c1)/C=C/C[C@H](O)[C@H](O)C(=O)/C=C\C[C@H](C)OC2=O [(5Z)-7-Oxozeaenol]
activation of JNK [1]: decreased activation of JNK
insulin sensitivity (p-Akt Thr-308 / total Akt) [2]: restored insulin sensitivity
TG levels as a measure of adipogenesis [3]: partially restored
decrease in adiponectin secretion [4]: partially inhibited
intracellular ROS levels [5]: reduced ROS levels
activation of JNK ([6]; in response to inflammatory cytokines, FIG. 13): decreased activation of JNK
activation of JNK ([6]; in response to metabolic stress (palmitate overload)): reduce activation of JNK
IkB level (NFkB pathway) [7]: increasing IkB level
inflammation induced NO release ([8]; C2C12 myotubes, FIG. 17 A): reduced inflammation induced NO release from C2C12 myotubes in a dose dependent manner
NO release ([8]; skeletal muscles, metabolic overload (high glucose and palmitate) and inflammatory conditions, FIG. 17 B): reduced NO release
ROS levels [9]: reduced
mitochondrial activity (reduction of MTT) [10]: increase mitochondrial activity
mitochondrial DNA copy number [11, 14]: increased mitochondrial DNA copy number
muscle enriched transcription factor (MEF2C) [11, 14]: increased
expression of mitochondrial genes such as mtND1 ([11]; skeletal muscle cells): up-regulate
glucose stimulated insulin secretion (GSIS) [12]: restored GSIS
inflammation induced IL1b expression ([13]; rat islet, FIG. 27): reduce inflammation induced IL1b expression
insulin gene and PDX1 expression ([13]; rat islets, under inflammation, FIG. 26): up-regulate
